Measurements from PubChem BioAssay (NCI).
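These data come from cells grown in 96-well plates and exposed to compound for 48 hours at five concentrations. GI50 is the concentration that inhibits growth by half. TGI marks complete inhibition of growth.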

How the values were obtained:
Assay in all cases: DTP human tumour cell line panel, 48 h
NCI-H23 lung = system: NCI-H23 lung
KM12 colon = system: KM12 colon
M14 melanoma = system: M14 melanoma
SF-295 CNS = system: SF-295 CNS
HCT-116 colon = system: HCT-116 colon
ACHN renal = system: ACHN renal
MOLT-4 leukemia = system: MOLT-4 leukemia
COLO 205 colon = system: COLO 205 colon
MCF7 breast = system: MCF7 breast
EKVX NSCLC = system: EKVX NSCLC
HCT-15 colon = system: HCT-15 colon
IGROV1 ovarian = system: IGROV1 ovarian
MDA-MB-231 breast = system: MDA-MB-231 breast
RXF 393 renal = system: RXF 393 renal
NCI-H226 lung = system: NCI-H226 lung
LOX IMVI melanoma = system: LOX IMVI melanoma
HS 578T breast = system: HS 578T breast
SK-MEL-2 melanoma = system: SK-MEL-2 melanoma
SK-MEL-28 melanoma = system: SK-MEL-28 melanoma
SN12C renal = system: SN12C renal
RPMI-8226 leukemia = system: RPMI-8226 leukemia
MDA-MB-435 = system: MDA-MB-435
SK-MEL-5 melanoma = system: SK-MEL-5 melanoma
DU-145 prostate = system: DU-145 prostate
BT-549 breast = system: BT-549 breast
NCI-H460 lung = system: NCI-H460 lung
OVCAR-3 ovarian = system: OVCAR-3 ovarian
NCI/ADR-RES ovarian = system: NCI/ADR-RES ovarian
A549 NSCLC = system: A549 NSCLC

`COc1ccc(CCn2c3c(c4c(O)cccc42)C(=O)c2ccccc2-3)cc1OC` was tested, and the GI50 (NCI-H23 lung) was 25.3 µM, the TGI (NCI-H23 lung) was > 77.7 µM and the GI50 (KM12 colon) was 22.1 µM. The TGI (KM12 colon) was > 81.9 µM, the GI50 (M14 melanoma) was 43.3 µM and the TGI (M14 melanoma) was > 84.4 µM. The GI50 (SF-295 CNS) was 30.8 µM, the TGI (SF-295 CNS) was > 81.6 µM and the GI50 (HCT-116 colon) was 26.1 µM. The TGI (HCT-116 colon) was > 57.5 µM, the GI50 (ACHN renal) was 13.6 µM and the TGI (ACHN renal) was > 52.7 µM. For the same molecule, the GI50 (MOLT-4 leukemia) was 19.9 µM, the TGI (MOLT-4 leukemia) was 63.9 µM and the GI50 (COLO 205 colon) was 29.1 µM. The TGI (COLO 205 colon) was > 87.3 µM, the GI50 (MCF7 breast) was 34.8 µM and the TGI (MCF7 breast) was > 100 µM. The GI50 (EKVX NSCLC) was 29.3 µM, the TGI (EKVX NSCLC) was > 94.7 µM and the GI50 (HCT-15 colon) was 22.5 µM. The TGI (HCT-15 colon) was > 73.4 µM, the GI50 (IGROV1 ovarian) was 0.818 µM and the TGI (IGROV1 ovarian) was > 47.4 µM. For the same molecule, the GI50 (MDA-MB-231 breast) was 41.5 µM, the TGI (MDA-MB-231 breast) was > 90.9 µM and the GI50 (RXF 393 renal) was > 79 µM. For the same molecule, the TGI (RXF 393 renal) was > 100 µM, the GI50 (NCI-H226 lung) was > 56.1 µM and the TGI (NCI-H226 lung) was > 100 µM. For the same molecule, the GI50 (LOX IMVI melanoma) was > 45 µM, the TGI (LOX IMVI melanoma) was > 73.3 µM and the GI50 (HS 578T breast) was 46.2 µM. The TGI (HS 578T breast) was > 85.4 µM, the GI50 (SK-MEL-2 melanoma) was 24.1 µM and the TGI (SK-MEL-2 melanoma) was > 95.3 µM. The GI50 (SK-MEL-28 melanoma) was > 80.2 µM, the TGI (SK-MEL-28 melanoma) was > 100 µM and the GI50 (SN12C renal) was 50.7 µM. The TGI (SN12C renal) was > 100 µM, the GI50 (RPMI-8226 leukemia) was 21.2 µM and the TGI (RPMI-8226 leukemia) was > 70.8 µM. For the same molecule, the GI50 (MDA-MB-435) was 20 µM, the TGI (MDA-MB-435) was > 83.7 µM and the GI50 (SK-MEL-5 melanoma) was 18.8 µM. The TGI (SK-MEL-5 melanoma) was > 60.3 µM, the GI50 (DU-145 prostate) was > 60.6 µM and the TGI (DU-145 prostate) was > 100 µM. The GI50 (BT-549 breast) was 6.57 µM, the TGI (BT-549 breast) was > 47.7 µM and the GI50 (NCI-H460 lung) was 31.2 µM. For the same molecule, the TGI (NCI-H460 lung) was > 96.5 µM, the GI50 (OVCAR-3 ovarian) was 54.1 µM and the TGI (OVCAR-3 ovarian) was > 100 µM. For the same molecule, the GI50 (NCI/ADR-RES ovarian) was 21 µM, the TGI (NCI/ADR-RES ovarian) was > 69.2 µM and the GI50 (A549 NSCLC) was 32.9 µM.
